Experimental data: US20250176599A1, “FLAVOR COMPOSITION AND FOOD AND BEVERAGE” (TAKASAGO INTERNATIONAL CORPORATION, priority 2021, published 2025)

Assays:
[1] = Overall conclusion of the sensory evaluation across aqueous solutions I to VI
Procedure: (§1) In ion-exchanged water, each degradation component was added to achieve the concentrations listed in Table 1, and aqueous solutions I to VI containing these degradation components were prepared.
(§2) For the aforementioned aqueous solutions containing degradation components, nootkatone was added at the concentrations listed in Table 2 to confirm the intensity of the off-flavor (masking effect) in each sample and the intensity of the masking component itself (the impact on the flavor of the food and/or beverage itself).
(§3) The test was conducted as follows. Eight experienced panelists were selected to conduct a sensory evaluation. The intensity of the off-flavor of the aqueous solution containing the degradation components derived from unsaturated fatty acids, without added masking components, was set as “Evaluation: 4.” The ion-exchanged water free of any degradation components was set as “Evaluation: 0.” The intensity of the off-flavor (masking effect) of each sample was then relatively evaluated according to the following evaluation criteria.
(§4) • Off-flavor is strongly sensed: 4 points • Off-flavor is sensed: 3 points • Off-flavor is slightly sensed: 2 points • Off-flavor is barely sensed: 1 point • Off-flavor is not sensed at all: 0 points
(§5) Also, the intensity of the masking components (impact on the flavor of the food and/or beverage itself) was absolutely evaluated according to the following evaluation criteria.
(§6) • Masking component is strongly sensed: 4 points • Masking component is sensed: 3 points • Masking component is slightly sensed: 2 points • Masking component is barely sensed: 1 point • Masking component is not sensed at all: 0 points

[2] = Sensory evaluation of aqueous solution I containing (E)-2-nonenal 1 ppb: off-flavor intensity and masking component intensity; settings: average panel score
Procedure: as §1, §2, §3, §4, §5, §6

[3] = Sensory evaluation of aqueous solution IV containing 1,5-octadien-3-one 100 ppt: off-flavor intensity and masking component intensity; settings: aqueous solution IV, average panel score
Procedure: as §1, §2, §3, §4, §5, §6

[4] = Sensory evaluation of aqueous solution II containing (E)-2-octenal 10 ppb: off-flavor intensity and masking component intensity; settings: average panel score
Procedure: as §1, §2, §3, §4, §5, §6

[5] = Sensory evaluation of aqueous solution V containing 1-octen-3-ol 10 ppb: off-flavor intensity and masking component intensity; settings: average panel score
Procedure: as §1, §2, §3, §4, §5, §6

[6] = Sensory evaluation of aqueous solution VI containing 1,5-octadien-3-ol 10 ppb: off-flavor intensity and masking component intensity; settings: aqueous solution VI, average panel score
Procedure: as §1, §2, §3, §4, §5, §6

[7] = Sensory evaluation of aqueous solution III containing 1-octen-3-one 1 ppb: off-flavor intensity and masking component intensity; settings: average panel score
Procedure: as §1, §2, §3, §4, §5, §6

CC1CCC(C(C)C)C(OCCO)C1 (centres unmarked) [2-menthoxyethanol]
concentration that masks the off-flavor and does not affect the flavor of the food and/or beverage itself, lower limit [1]: ≥ 10 ppb
concentration that masks the off-flavor and does not affect the flavor of the food and/or beverage itself, upper limit [1]: ≤ 10 ppm
Masking Component Intensity ([2]; 1 ppb added): 0.5
Off-Flavor Intensity ([2]; 1 ppb added): 3.4
Masking Component Intensity ([2]; 1 ppm added): 1.6
Off-Flavor Intensity ([2]; 1 ppm added): 2.5
Masking Component Intensity ([2]; 10 ppb added): 0.8
Off-Flavor Intensity ([2]; 10 ppb added): 3.0
Masking Component Intensity ([2]; 10 ppm added): 2.3
Off-Flavor Intensity ([2]; 10 ppm added): 1.8
Masking Component Intensity ([2]; 50 ppm added): 3.5
Off-Flavor Intensity ([2]; 50 ppm added): 1.4
Masking Component Intensity ([2]; 100 ppb added): 1.3
Off-Flavor Intensity ([2]; 100 ppb added): 2.8
Masking Component Intensity ([2]; 100 ppm added): 3.8
Off-Flavor Intensity ([2]; 100 ppm added): 1.0
Masking Component Intensity ([2]; 100 ppt added): 0.3
Off-Flavor Intensity ([2]; 100 ppt added): 3.8
Masking Component Intensity ([3]; 1 ppb added): 0.5
Off-Flavor Intensity ([3]; 1 ppb added): 3.4
Masking Component Intensity ([3]; 1 ppm added): 2.3
Off-Flavor Intensity ([3]; 1 ppm added): 2.4
Masking Component Intensity ([3]; 10 ppb added): 1.0
Off-Flavor Intensity ([3]; 10 ppb added): 3.0
Masking Component Intensity ([3]; 10 ppm added): 2.6
Off-Flavor Intensity ([3]; 10 ppm added): 2.3
Masking Component Intensity ([3]; 50 ppm added): 3.4
Off-Flavor Intensity ([3]; 50 ppm added): 1.9
Masking Component Intensity ([3]; 100 ppb added): 1.6
Off-Flavor Intensity ([3]; 100 ppb added): 2.5
Masking Component Intensity ([3]; 100 ppm added): 3.9
Off-Flavor Intensity ([3]; 100 ppm added): 1.8
Masking Component Intensity ([3]; 100 ppt added): 0.1
Off-Flavor Intensity ([3]; 100 ppt added): 3.5
Masking Component Intensity ([4]; 1 ppb added): 0.8
Off-Flavor Intensity ([4]; 1 ppb added): 3.3
Masking Component Intensity ([4]; 1 ppm added): 2.0
Off-Flavor Intensity ([4]; 1 ppm added): 2.4
Masking Component Intensity ([4]; 10 ppb added): 1.1
Off-Flavor Intensity ([4]; 10 ppb added): 2.9
Masking Component Intensity ([4]; 10 ppm added): 2.6
Off-Flavor Intensity ([4]; 10 ppm added): 2.0
Masking Component Intensity ([4]; 50 ppm added): 3.4
Off-Flavor Intensity ([4]; 50 ppm added): 1.5
Masking Component Intensity ([4]; 100 ppb added): 1.6
Off-Flavor Intensity ([4]; 100 ppb added): 2.5
Masking Component Intensity ([4]; 100 ppm added): 3.8
Off-Flavor Intensity ([4]; 100 ppm added): 1.3
Masking Component Intensity ([4]; 100 ppt added): 0.5
Off-Flavor Intensity ([4]; 100 ppt added): 3.4
Masking Component Intensity ([5]; 1 ppb added): 0.4
Off-Flavor Intensity ([5]; 1 ppb added): 3.1
Masking Component Intensity ([5]; 1 ppm added): 1.8
Off-Flavor Intensity ([5]; 1 ppm added): 2.3
Masking Component Intensity ([5]; 10 ppb added): 0.5
Off-Flavor Intensity ([5]; 10 ppb added): 2.6
Masking Component Intensity ([5]; 10 ppm added): 2.6
Off-Flavor Intensity ([5]; 10 ppm added): 2.3
Masking Component Intensity ([5]; 50 ppm added): 3.5
Off-Flavor Intensity ([5]; 50 ppm added): 1.8
Masking Component Intensity ([5]; 100 ppb added): 1.4
Off-Flavor Intensity ([5]; 100 ppb added): 2.5
Masking Component Intensity ([5]; 100 ppm added): 3.8
Off-Flavor Intensity ([5]; 100 ppm added): 1.6
Masking Component Intensity ([5]; 100 ppt added): 0.1
Off-Flavor Intensity ([5]; 100 ppt added): 3.3
Masking Component Intensity ([6]; 1 ppb added): 0.6
Off-Flavor Intensity ([6]; 1 ppb added): 3.3
Masking Component Intensity ([6]; 1 ppm added): 2.0
Off-Flavor Intensity ([6]; 1 ppm added): 2.0
Masking Component Intensity ([6]; 10 ppb added): 1.0
Off-Flavor Intensity ([6]; 10 ppb added): 2.8
Masking Component Intensity ([6]; 10 ppm added): 2.5
Off-Flavor Intensity ([6]; 10 ppm added): 1.9
Masking Component Intensity ([6]; 50 ppm added): 3.8
Off-Flavor Intensity ([6]; 50 ppm added): 1.5
Masking Component Intensity ([6]; 100 ppb added): 1.8
Off-Flavor Intensity ([6]; 100 ppb added): 2.6
Masking Component Intensity ([6]; 100 ppm added): 4.0
Off-Flavor Intensity ([6]; 100 ppm added): 1.3
Masking Component Intensity ([6]; 100 ppt added): 0.3
Off-Flavor Intensity ([6]; 100 ppt added): 3.4
Masking Component Intensity ([7]; 1 ppb added): 0.8
Off-Flavor Intensity ([7]; 1 ppb added): 3.1
Masking Component Intensity ([7]; 1 ppm added): 1.9
Off-Flavor Intensity ([7]; 1 ppm added): 2.4
Masking Component Intensity ([7]; 10 ppb added): 1.1
Off-Flavor Intensity ([7]; 10 ppb added): 2.9
Masking Component Intensity ([7]; 10 ppm added): 2.5
Off-Flavor Intensity ([7]; 10 ppm added): 2.3
Masking Component Intensity ([7]; 50 ppm added): 3.8
Off-Flavor Intensity ([7]; 50 ppm added): 2.0
Masking Component Intensity ([7]; 100 ppb added): 1.8
Off-Flavor Intensity ([7]; 100 ppb added): 2.5
Masking Component Intensity ([7]; 100 ppm added): 3.9
Off-Flavor Intensity ([7]; 100 ppm added): 2.0
Masking Component Intensity ([7]; 100 ppt added): 0.6
Off-Flavor Intensity ([7]; 100 ppt added): 3.3
